Assay results reported in patent US8324176B2, “Pyrazole derivatives, medicinal composition containing the same, medicinal use thereof, and intermediate for production thereof” (Kissei Pharmaceutical Co., Ltd., priority 2002, dated 2012).

Molecular target: T1, human SGLT1 (Homo sapiens, UniProt P13866)
T1 construct: expressed in transfected cells
T1 sequence (P13866 1-664): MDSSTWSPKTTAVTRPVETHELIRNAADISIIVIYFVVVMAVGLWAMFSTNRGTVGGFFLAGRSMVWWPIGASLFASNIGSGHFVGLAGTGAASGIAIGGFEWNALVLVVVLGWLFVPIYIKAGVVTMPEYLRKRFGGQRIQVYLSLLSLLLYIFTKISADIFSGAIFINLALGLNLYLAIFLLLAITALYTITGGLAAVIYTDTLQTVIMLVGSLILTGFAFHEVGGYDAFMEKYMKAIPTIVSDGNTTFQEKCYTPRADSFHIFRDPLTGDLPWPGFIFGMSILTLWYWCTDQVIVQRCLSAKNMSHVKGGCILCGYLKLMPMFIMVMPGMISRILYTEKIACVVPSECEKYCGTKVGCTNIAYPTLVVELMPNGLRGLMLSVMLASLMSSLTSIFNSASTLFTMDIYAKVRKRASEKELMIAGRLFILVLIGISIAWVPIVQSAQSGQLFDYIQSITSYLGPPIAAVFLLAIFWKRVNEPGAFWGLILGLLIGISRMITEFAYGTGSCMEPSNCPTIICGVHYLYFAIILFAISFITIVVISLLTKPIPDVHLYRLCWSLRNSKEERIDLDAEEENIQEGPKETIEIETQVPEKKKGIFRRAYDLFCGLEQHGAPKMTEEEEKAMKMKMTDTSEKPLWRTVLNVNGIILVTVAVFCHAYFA
Assay: Assay for inhibitory effects on human SGLT1 activity (uptake of methyl-α-D-glucopyranoside in CS1-5-11D cells)
Assay type: cell-based
Details: CHO-K1 cells stably expressing human SGLT1 (CS1-5-11D); 1 mM α-MG uptake, 37° C., 1 hour
Description: Assay for Inhibitory Effects on Human SGLT1 Activity
1) Cloning and Construction of the Vector Expressing Human SGLT1
The cDNA library was prepared for PCR amplification by reverse transcription from total RNA deprived from human small intestine (Ori gene) using oligo-dT as a primer.
2) Establishment of Cell Line Stably Expressing Human SGLT1
The expression vector of human SGLT1 was digested by Sca I into a linear DNA. The linear DNA was transfected into CHO-K1 cells by means of lipofection (Effectene Transfection Reagent: QIAGEN). Neomycin resistant cell lines were selected by culture in the medium containing G418 (1 mg/mL, LIFE TECHNOLOGIES), and then the activity against the uptake of methyl-α-D-glucopyranoside was measured by the method described below. […] CS1-5-11D cells were cultured in the presence of G418 at 200 μg/mL.
3) Measurement of the Inhibitory Activity Against the Uptake of Methyl-α-D-glucopyranoside (α-MG)
CS1-5-11D cells were seeded into a 96-well culture plate at a density of 3×10^4 cells/well and cultured for 2 days, and were used in the uptake assay. A mixture of non-labeled (Sigma) and ^14C-labeled α-MG (Amersham Pharmcia Biotec) was added to the uptake buffer (pH 7.4: containing 140 mM sodium chloride, 2 mM potassium chloride, 1 mM calcium chloride, 1 mM magnesium chloride, 10 mM 2-[4-(2-hydroxyethyl)-1-piperazinyl]ethane sulfonic acid, and 5 mM tris(hydroxymethyl)aminomethane) at the final concentration of 1 mM. A test compound was dissolved in dimethyl sulfoxide, and then appropriately diluted with distilled water. The test compound solution was added to the uptake buffer containing 1 mM α-MG, and designated as a measurement buffer. For the control group, the measurement buffer without any test compound was prepared. For measuring the basal uptake, a basal uptake measurement buffer which contains 140 mM chorine chloride instead of sodium chloride was prepared. After removing the culture medium of CS1-5-11D cells, 180 μL of the pre-treatment buffer (the basal uptake buffer without α-MG) was added to each well and incubated at 37° C. for 10 minutes. After repeating the same treatment, the pre-treatment buffer was removed. To each well was added 75 μL of the measurement buffer or the basal uptake buffer was added and incubated at 37° C. for 1 hour. After removing the measurement buffer, cells were washed twice with 180 μL per well of the washing buffer (the basal uptake buffer containing 10 mM non-labeled α-MG). The cells were solubilized by 75 μL per well of 0.2 mol/L sodium hydroxide. The cell lysates were transferred into PicoPlates (Packard), and then added 150 μL of MicroScint-40 (Packard) and mixed. Radioactivity was measured by means of micro-scintillation counter TopCount (Packard). One hundred was set to the difference between the uptake in the control group and the basal uptake, and the uptake of methyl α-D-glucopyranoside a teach drug concentration were calculated.

Row | SMILES | IC50 [nM]
1 | Cc1cc(OCCCN)ccc1Cc1c(O[C@@H]2O[C@H](CO)[C@@H](O)[C@H](O)[C@H]2O)n[nH]c1C(C)C [Example 9, 4-{[4-(3-Aminopropoxy)-2-methylphenyl]methyl}-3-(β-D-glucopyranosyloxy)-5-isopropyl-1H-pyrazole] | 42
2 | CC(C)c1[nH]nc(O[C@@H]2O[C@H](CO)[C@@H](O)[C@H](O)[C@H]2O)c1Cc1ccc(OCCCNC(=O)NC(CO)CO)cc1 [Example 22, 3-(β-D-Glucopyranosyloxy)-4-{[4-(3-{3-[2-hydroxy-1-(hydroxymethyl)ethyl]ureido}propoxy)phenyl]methyl}-5-isopropyl-1H-pyrazole] | 233
3 | Cc1cc(OCCCNC(=O)NC(C)(CO)CO)ccc1Cc1c(O[C@@H]2O[C@H](CO)[C@@H](O)[C@H](O)[C@H]2O)n[nH]c1C(C)C [Example 28, 3-(β-D-Glucopyranosyloxy)-4-{[4-(3-{3-[2-hydroxy-1-(hydroxymethyl)-1-(methyl)ethyl]ureido}propoxy)-2-methylphenyl]methyl}-5-isopropyl-1H-pyrazole] | 90
4 | Cc1cc(OCCCNC(=O)NC(C)(C)CO)ccc1Cc1c(O[C@@H]2O[C@H](CO)[C@@H](O)[C@H](O)[C@H]2O)n[nH]c1C(C)C [Example 29, 3-(β-D-Glucopyranosyloxy)-4-{[4-(3-(3-[2-hydroxy-1,1-di(methyl)ethyl]ureido)propoxy)-2-methylphenyl]methyl}-5-isopropyl-1H-pyrazole] | 19
5 | Cc1cc(OCCCNC(=O)NCCO)ccc1Cc1c(O[C@@H]2O[C@H](CO)[C@@H](O)[C@H](O)[C@H]2O)n[nH]c1C(C)C [Example 30, 3-(β-D-Glucopyranosyloxy)-4-[(4-(3-[3-(2-hydroxyethyl)ureido]propoxy)-2-methylphenyl)methyl]-5-isopropyl-1H-pyrazole] | 257
6 | Cc1cc(OCCNC(=O)NC(C)(C)C(N)=O)ccc1Cc1c(O[C@@H]2O[C@H](CO)[C@@H](O)[C@H](O)[C@H]2O)n[nH]c1C(C)C [Example 31, 4-{[4-(2-{3-[1-Carbamoyl-1-(methyl)ethyl]ureido}ethoxy)-2-methylphenyl]methyl}-3-(β-D-glucopyranosyloxy)-5-isopropyl-1H-pyrazole] | 166

Other lines, results leading:

Row | IC50 [nM] | SMILES
7 | 113 | Cc1cc(OCCNC(=O)NC(C)(CO)CO)ccc1Cc1c(O[C@@H]2O[C@H](CO)[C@@H](O)[C@H](O)[C@H]2O)n[nH]c1C(C)C [Example 32, 3-(β-D-Glucopyranosyloxy)-4-{[4-(2-{3-[2-hydroxy-1-(hydroxymethyl)-1-(methyl)ethyl]ureido}ethoxy)-2-methylphenyl]methyl}-5-isopropyl-1H-pyrazole]
8 | 65 | Cc1cc(OCCNC(=O)NC(C)(C)CO)ccc1Cc1c(O[C@@H]2O[C@H](CO)[C@@H](O)[C@H](O)[C@H]2O)n[nH]c1C(C)C [Example 33, 3-(β-D-Glucopyranosyloxy)-4-{[4-(2-{3-[2-hydroxy-1,1-di(methyl)ethyl]ureido}ethoxy)-2-methylphenyl]methyl}-5-isopropyl-1H-pyrazole]
9 | 383 | CNC(=NC#N)NCCCOc1ccc(Cc2c(O[C@@H]3O[C@H](CO)[C@@H](O)[C@H](O)[C@H]3O)n[nH]c2C(C)C)cc1 [Example 36, 4-({4-[3-(2-Cyano-3-methylguanidino)propoxy]phenyl}methyl)-3-(β-D-glucopyranosyloxy)-5-isopropyl-1H-pyrazole]
10 | 246 | CC(C)c1[nH]nc(O[C@@H]2O[C@H](CO)[C@@H](O)[C@H](O)[C@H]2O)c1Cc1ccc(OCCCNS(N)(=O)=O)cc1 [Example 38, 3-(β-D-Glucopyranosyloxy)-5-isopropyl-4-({4-[3-(sulfamoylamino)propoxy]phenyl}methyl)-1H-pyrazole]
11 | 54 | CC(C)c1[nH]nc(O[C@@H]2O[C@H](CO)[C@@H](O)[C@H](O)[C@H]2O)c1Cc1ccc(OCCCNC(C)(C)C(N)=O)cc1 [Example 48, 4-[(4-{3-[1-Carbamoyl-1-(methyl)ethylamino]propoxy}phenyl)methyl]-3-(β-D-glucopyranosyloxy)-5-isopropyl-1H-pyrazole]
